According to ChEMBL document CHEMBL1122397, “Synthesis and pharmacological characterization of (+/-)-5,9 alpha-dimethyl-2-[2-(4-fluorophenyl)ethyl]-2'-hydroxy-6,7-benzomorphan (fluorophen), a ligand suitable for visualization of opiate receptors in vivo” (J Med Chem, 1983):

Key:
Mus musculus = species on record: Mus musculus; test: cells; settings: Rattus norvegicus, Brain, 3 h
Opioid receptor = Opioid receptor (Rattus norvegicus, UniProt P33533+P34975+P33535); test: (§1) Ability to displace 50% of (+/-) ethylketocyclazocine (2.8) in rat brain homogenate; type: tissue-based
[1] = target: Mu-type opioid receptor (Cavia porcellus) (UniProt P97266); test: Relative potency to induce 50% of maximal effect in guinea pig ileum expressing Opioid receptor mu 1; type: tissue-based
[2] = target: T1, Kappa-type opioid receptor (Homo sapiens, UniProt P41145); test: Relative potency to induce 50% of maximal effect in rabbit vas deferens expressing Opioid receptor kappa 1; settings: Oryctolagus cuniculus
[3] = target: T1, Kappa-type opioid receptor; test: Ability to induce 50% of maximal effect in rabbit vas deferens expressing Opioid receptor kappa 1; type: tissue-based, Oryctolagus cuniculus
Mu-type opioid receptor = Mu-type opioid receptor (Cavia porcellus, UniProt P97266); test: Ability to induce 50% of maximal effect in guinea pig ileum expressing Opioid receptor mu 1; type: tissue-based
Rattus norvegicus [4] = species on record: Rattus norvegicus; test: Ability to displace 50% of (-) naloxone(1.0) in rat brain homogenate
Rattus norvegicus [5] = species on record: Rattus norvegicus; test: Ability to displace 50% of [3H]- labeled DADLE in rat brain homogenate
Rattus norvegicus [6] = species on record: Rattus norvegicus; test: Relative potency in displacing (-) naloxone(1.0) in rat brain homogenate
Rattus norvegicus [7] = species on record: Rattus norvegicus; test: Relative potency in displacing [3H]- labeled DADLE in rat brain homogenate
Rattus norvegicus [8] = species on record: Rattus norvegicus; test: Relative potency in displacing ((+/-) ethylketocyclazocine (2.8)) in rat brain homogenate
Rattus norvegicus [9] = species on record: Rattus norvegicus; test: as §1
[10] = target: Delta-type opioid receptor (Mus musculus) (UniProt P32300); test: Relative potency to induce 50% of maximal effect in mouse vas deferens expressing Opioid receptor delta 1
Sequence of Delta-type opioid receptor (Mus musculus) (P32300 whole entry, looked up): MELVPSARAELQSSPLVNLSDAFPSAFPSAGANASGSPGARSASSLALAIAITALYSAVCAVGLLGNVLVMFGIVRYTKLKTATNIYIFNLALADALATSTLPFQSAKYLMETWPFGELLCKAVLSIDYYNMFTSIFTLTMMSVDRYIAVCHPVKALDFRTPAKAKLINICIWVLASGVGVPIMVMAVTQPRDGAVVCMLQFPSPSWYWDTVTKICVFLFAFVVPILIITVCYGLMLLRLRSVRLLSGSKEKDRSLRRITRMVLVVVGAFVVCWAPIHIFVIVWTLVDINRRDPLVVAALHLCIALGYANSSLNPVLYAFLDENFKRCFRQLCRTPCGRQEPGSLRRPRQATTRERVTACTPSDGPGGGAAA

T1 sequence (P41145 whole entry): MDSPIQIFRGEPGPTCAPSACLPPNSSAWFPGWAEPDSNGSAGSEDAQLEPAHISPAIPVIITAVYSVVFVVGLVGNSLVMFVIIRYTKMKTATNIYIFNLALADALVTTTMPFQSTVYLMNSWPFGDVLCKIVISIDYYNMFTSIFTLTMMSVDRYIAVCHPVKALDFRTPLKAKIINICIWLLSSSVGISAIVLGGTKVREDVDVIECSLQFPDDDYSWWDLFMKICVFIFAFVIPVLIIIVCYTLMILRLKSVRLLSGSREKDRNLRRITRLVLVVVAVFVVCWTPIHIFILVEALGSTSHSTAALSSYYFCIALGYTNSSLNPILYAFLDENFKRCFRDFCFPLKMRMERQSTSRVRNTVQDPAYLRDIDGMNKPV
Sequence of Mu-type opioid receptor (Cavia porcellus) (P97266 whole entry): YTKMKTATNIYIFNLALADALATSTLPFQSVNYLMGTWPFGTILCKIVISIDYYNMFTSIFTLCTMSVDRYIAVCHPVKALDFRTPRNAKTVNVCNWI
Sequence of Mu-type opioid receptor (P97266 whole entry): as above

With CC(C)C[C@H](NC(=O)[C@H](Cc1ccccc1)NC(=O)CNC(=O)CNC(=O)[C@@H](N)Cc1ccc(O)cc1)C(=O)O [ENKEPHALIN] the IC50 (Mus musculus) was 11 nM.

CC[C@@]12CCN(CC3CC3)C(C(=O)c3ccc(O)cc31)[C@@H]2C [ETHYLKETOCYCLAZOCINE] was tested, and the IC50 (Opioid receptor) was 8.4 nM.

For CC1C2Cc3ccc(O)cc3C1(C)CCN2CCc1ccccc1 (stereo not drawn) [PHENAZOCINE], the Relative Potency [1] was 7.9, the Relative Potency [2] was 0.4 and the IC50 [3] was 121 nM. It also gave an IC50 (Mu-type opioid receptor) of 9.8 nM, an IC50 (Rattus norvegicus [4]) of 82 nM and an IC50 (Rattus norvegicus [5]) of 26 nM. For the same compound, the Relative Potency (Rattus norvegicus [6]) was 2.4, the Relative Potency (Rattus norvegicus [7]) was 0.42 and the Relative Potency (Rattus norvegicus [8]) was 0.13. It also gave an IC50 (Rattus norvegicus [9]) of 65 nM and a Relative Potency [10] of 1.2.
